In ChEMBL document CHEMBL1122330, “Studies on v-triazoles. 7. Antiallergic 9-oxo-1H,9H-benzopyrano[2,3-d]-v-triazoles” (1983):

What was measured:
Format in all cases: functional
[1] = system: Rattus norvegicus; test: Inhibition of passive cutaneous anaphylaxis (PCA) in Charles Rivers Sprague-Dawley rat after intravenous administration; value range […]
[2] = system: Rattus norvegicus; test: Inhibition of passive cutaneous anaphylaxis (PCA) in Charles Rivers Sprague-Dawley rat after intravenous administration
[3] = system: Rattus norvegicus; test: Inhibition of passive cutaneous anaphylaxis (PCA) in Charles Rivers Sprague-Dawley rat after intravenous administration; value range from 0.3 to 0.5
[4] = system: Rattus norvegicus; test: Inhibition of passive cutaneous anaphylaxis (PCA) in Charles Rivers Sprague-Dawley rat after intravenous administration; value range from 1.6 to 3.0
[5] = system: Rattus norvegicus; test: Inhibition of passive cutaneous anaphylaxis (PCA) in Charles Rivers Sprague-Dawley rat after intravenous administration; value range from 4.1 to 5.8
[6] = system: Rattus norvegicus; test: Inhibition of passive cutaneous anaphylaxis (PCA) in Charles Rivers Sprague-Dawley rat after intravenous administration; value range from 0.1 to 0.4
[7] = system: Rattus norvegicus; test: Inhibition of passive cutaneous anaphylaxis (PCA) in Charles Rivers Sprague-Dawley rat after intravenous administration; value range from 0.8 to 1.4
[8] = system: Rattus norvegicus; test: Inhibition of passive cutaneous anaphylaxis (PCA) in Charles Rivers Sprague-Dawley rat after intravenous administration; value range from 0.03 to 0.6
[9] = system: Rattus norvegicus; test: Inhibition of passive cutaneous anaphylaxis (PCA) in Charles Rivers Sprague-Dawley rat after intravenous administration; value range from 0.4 to 0.9
[10] = system: Rattus norvegicus; test: Inhibition of passive cutaneous anaphylaxis (PCA) in Charles Rivers Sprague-Dawley rat after intravenous administration; value range from 1.4 to 2.4
[11] = system: Rattus norvegicus; test: Inhibition of passive cutaneous anaphylaxis (PCA) in Charles Rivers Sprague-Dawley rat after intravenous administration; value range from 0.05 to 0.6
[12] = system: Rattus norvegicus; test: Inhibition of passive cutaneous anaphylaxis (PCA) in Charles Rivers Sprague-Dawley rat after intravenous administration; value range from 0.8 to 1.6
[13] = system: Rattus norvegicus; test: Inhibition of passive cutaneous anaphylaxis (PCA) in Charles Rivers Sprague-Dawley rat after intravenous administration; value range from 0.2 to 0.3
[14] = system: Rattus norvegicus; test: Inhibition of passive cutaneous anaphylaxis (PCA) in Charles Rivers Sprague-Dawley rat after intravenous administration; value range from 1.8 to 2.7
[15] = system: Rattus norvegicus; test: Inhibition of passive cutaneous anaphylaxis (PCA) in Charles Rivers Sprague-Dawley rat after intravenous administration; value range from 1.4 to 2.1
[16] = system: Rattus norvegicus; test: Inhibition of passive cutaneous anaphylaxis (PCA) in Charles Rivers Sprague-Dawley rat after intravenous administration; value range from 1.1 to 1.8
[17] = system: Rattus norvegicus; test: Inhibition of passive cutaneous anaphylaxis (PCA) in Charles Rivers Sprague-Dawley rat after intravenous administration; value range from 0.8 to 1.5
[18] = system: Rattus norvegicus; test: Inhibition of passive cutaneous anaphylaxis (PCA) in Charles Rivers Sprague-Dawley rat after intravenous administration; value range from 6.2 to 7.8
[19] = system: Rattus norvegicus; test: Inhibition of passive cutaneous anaphylaxis (PCA) in Charles Rivers Sprague-Dawley rat after intravenous administration; value range from 1.9 to 22.5
[20] = system: Rattus norvegicus; test: Inhibition of passive cutaneous anaphylaxis (PCA) in Charles Rivers Sprague-Dawley rat after intravenous administration; value range from 0.3 to 0.8
[21] = system: Rattus norvegicus; test: Inhibition of passive cutaneous anaphylaxis (PCA) in Charles Rivers Sprague-Dawley rat after intravenous administration; value range from 1.5 to 2.9

COc1ccc2oc3nnnc-3c(O)c2c1
ED50 [1]: 1.7 mg/kg

CCCc1ccc(OC)c2c(O)c3nnnc-3oc12
ED50 [2]: > 10 mg/kg

COc1ccc2c(O)c3nnnc-3oc2c1C
ED50 [3]: 0.4 mg/kg

Oc1c2nnnc-2oc2ccc3c(c12)CCCC3
ED50 [4]: 2.1 mg/kg

Cc1ccc2oc3nnnc-3c(O)c2c1
ED50 [5]: 5 mg/kg

Cc1c(OS(C)(=O)=O)ccc2c(O)c3nnnc-3oc12
ED50 [6]: 0.2 mg/kg

CCCc1c(O)ccc2c(O)c3nnnc-3oc12
ED50 [7]: 1.1 mg/kg

COc1ccc2c(O)c3nnnc-3oc2c1
ED50 [8]: 0.3 mg/kg

Cc1ccc2oc3nnnc-3c(O)c2c1C
ED50 [9]: 0.6 mg/kg

Oc1ccc2c(O)c3nnnc-3oc2c1
ED50 [10]: 1.8 mg/kg

Cc1ccc2c(O)c3nnnc-3oc2c1C
ED50 [11]: 0.3 mg/kg

Cc1cc(C)c2c(O)c3nnnc-3oc2c1C
ED50 [12]: 1.2 mg/kg

CS(=O)(=O)Oc1ccc2c(O)c3nnnc-3oc2c1
ED50 [13]: 0.2 mg/kg

Cc1c(O)ccc2c(O)c3nnnc-3oc12
ED50 [14]: 2.2 mg/kg

Oc1cccc2oc3nnnc-3c(O)c12
ED50 [15]: 1.7 mg/kg

Oc1c2nnnc-2oc2ccccc12
ED50 [16]: 1.4 mg/kg

CCCc1c(OC)ccc2c(O)c3nnnc-3oc12
ED50 [17]: 1 mg/kg

CCCc1ccc(O)c2c(O)c3nnnc-3oc12
ED50 [18]: 7 mg/kg

Cc1cc2oc3nnnc-3c(O)c2cc1C
ED50 [3]: 0.4 mg/kg

COc1cccc2oc3nnnc-3c(O)c12
ED50 [19]: 3.5 mg/kg

Oc1c2nnnc-2oc2cc3c(cc12)CCCC3
ED50 [20]: 0.6 mg/kg

O=C([O-])c1cc(=O)c2c(OCC(O)COc3cccc4oc(C(=O)[O-])cc(=O)c34)cccc2o1.[Na+].[Na+] [CROMOLYN SODIUM]
ED50 [21]: 2 mg/kg
